Patent publication US12721838B2 (Henry Ford Health System, priority 2020, dated 2026)

Assays:
[1] = system: NCI-H226, SK-MES-1, NCI-H2228 and NCI-H596 lung cancer cell lines; experiment: 72-hour cell viability assay in lung cancer cell lines; assay type: cell-based, human
p-glycoprotein (PGP) = p-glycoprotein (PGP) (Homo sapiens, UniProt P08183); conditions: cited from earlier work
[2] = system: pAkt, Bcl-xL, Survivin, and FOXO3; experiment: Western blot of TRIB2 downstream targets in LNCaP-ENR cells; assay type: cell-based, human; conditions: 12 μM, 24 hours
Experimental: LNCaP-ENR cells were treated with varying doses (4 μM, 8 μM, or 12 μM) of DCV for 24 hours. Effects on TRIB2 protein levels and its downstream targets (e.g., pAkt, Bcl-xL, Survivin, and FOXO3) were analyzed by Western blot. GAPDH was used as loading control. Protein levels of TRIB2, pAKT (S473), Bcl-xL, and Survivin were reduced in cells treated with 12 μM of DCV compared to control-treated cells (FIG. 3A). Levels of FOXO3 protein were increased at 12 μM of DCV treatment compared to control treatment. This was expected, as FOXO3 level is known to be decreased by Trib2. These effects on cellular protein levels were DCV concentration-dependent, with the most pronounced effects observed at the highest concentration tested (12 μM).

Trib2-OE cells = experiment: Enzalutamide sensitivity of Trib2-overexpressing prostate cancer cells; assay type: cell-based, human; conditions: Trib2-OE cells, DCV 6 μM
From the text: Prostate cancer cells were transfected with full length human gene to overexpress Trib2 (FIG. 18). […] Trib2 siRNA was used in parallel experiments as a positive control.

pure Trib2 protein = biological target: T1, pure Trib2 protein (Homo sapiens, UniProt Q92519); experiment: Thermal shift assay by Differential Scanning Spectro-fluorometry; assay type: binding; conditions: decreased from 41° C. (DMSO only)
T1 sequence (Q92519 1-343): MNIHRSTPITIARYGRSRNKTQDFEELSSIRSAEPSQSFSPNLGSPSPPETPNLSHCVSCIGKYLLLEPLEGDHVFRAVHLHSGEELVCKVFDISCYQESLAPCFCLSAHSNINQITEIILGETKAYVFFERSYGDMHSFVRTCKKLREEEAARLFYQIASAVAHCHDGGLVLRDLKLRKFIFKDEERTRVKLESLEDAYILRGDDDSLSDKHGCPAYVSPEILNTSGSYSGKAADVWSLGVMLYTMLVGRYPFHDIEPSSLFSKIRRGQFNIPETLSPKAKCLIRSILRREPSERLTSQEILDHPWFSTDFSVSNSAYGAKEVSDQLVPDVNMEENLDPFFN
From the text: FIG. 8 depicts a graph showing the results of a thermal shift assay of pure Trib2 protein by Differential Scanning Spectro-fluorometry.

LNCaP-ENR cells [3] = experiment: Cell cycle distribution; assay type: cell-based, human; conditions: ERPC cells; FIG. 16 at 8 μM
[4] = system: ERPC tumors (LNCaP-ENR cells)
Experimental: BALB/c nude mice were subcutaneously injected with the LNCaP-ENR cells (1×10^6 cells per mouse) to develop tumors. Once the tumors reached a size of ~100 cubic mm, the mice were treated with 30 mg/kg/day DCV or a solution of DMSO:cremophor:PBS at 1:1:8 ratio, orally for four weeks (n=3). Tumor size and body weights were measured once per week. Tumor volumes were calculated using the following formula:
[formula] • Wherein “TV” means tumor volume; • “a” is the long diameter of a tumor; and • “b” is the short diameter of a tumor.
Tumor samples were collected at 4 weeks post-treatment, and TRIB2 protein levels in the tumors were determined by immunohistochemistry (IHC) using monoclonal anti-Trib2 antibody (Santa Cruz Bio, Santa Cruz, CA; Cat. No.: 100878) at 1:100.

[5] = biological target: T2, Trib2-Luciferase (Luc-Trib2) fusion (Homo sapiens, UniProt Q92519); experiment: cell-based; conditions: HFF
T2 sequence (Q92519 with tags, fused parts or gaps): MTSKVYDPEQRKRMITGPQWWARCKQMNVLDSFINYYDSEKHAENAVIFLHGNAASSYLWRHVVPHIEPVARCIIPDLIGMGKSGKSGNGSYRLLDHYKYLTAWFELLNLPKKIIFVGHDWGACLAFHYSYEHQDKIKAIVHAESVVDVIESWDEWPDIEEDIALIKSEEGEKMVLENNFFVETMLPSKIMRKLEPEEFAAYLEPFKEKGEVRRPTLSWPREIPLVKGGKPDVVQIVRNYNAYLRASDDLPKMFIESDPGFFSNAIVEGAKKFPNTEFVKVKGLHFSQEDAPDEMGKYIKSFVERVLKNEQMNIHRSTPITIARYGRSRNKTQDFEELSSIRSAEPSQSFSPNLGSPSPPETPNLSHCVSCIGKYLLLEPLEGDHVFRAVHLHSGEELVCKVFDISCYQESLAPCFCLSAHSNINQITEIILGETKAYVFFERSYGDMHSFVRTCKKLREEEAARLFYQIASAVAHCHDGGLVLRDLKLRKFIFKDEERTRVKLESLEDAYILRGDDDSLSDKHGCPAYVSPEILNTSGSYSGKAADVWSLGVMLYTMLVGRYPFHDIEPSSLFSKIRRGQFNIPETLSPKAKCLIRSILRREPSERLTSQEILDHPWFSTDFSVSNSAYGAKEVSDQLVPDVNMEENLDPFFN

ERPC cells = experiment: DNA degradation assay; assay type: cell-based, human
From the text: FIG. 17 depicts a graph showing the apoptotic effects of DCV as measured by DNA degradation assay.

[6] = cited from earlier work
LNCaP-ENR cells [7] = experiment: MTS/PES cell viability assay, ERPC cells; assay type: cell-based, human
Experimental: Plates were incubated for 72 hours at 37° C. in a CO2 incubator. Cell viability was measured by MTS/PES cell titer assay (Promega Corp., Madison, WI).

[8] = cited from earlier work; remark: listed apart in the source
LNCaP-ENR cells [9] = experiment: Apoptosis by Annexin V binding, flow cytometry; assay type: cell-based, human; conditions: LNCaP-ENR cells, 8 μM, 24 hours, flow cytometry
Experimental: To test DCV effects on cancer cell apoptosis, LNCaP-ENR cells were treated with 8 μM DCV for 24 hours and analyzed by flow cytometry. Treatment with DCV indicated increased Annexin V binding, a read-out for apoptosis (FIG. 3C).

normal, non-cancer cells = experiment: Effects on normal, non-cancer cells; assay type: cell-based; conditions: same experimental conditions as ERPC cells

p-glycoprotein (PGP), sequence (P08183 whole entry): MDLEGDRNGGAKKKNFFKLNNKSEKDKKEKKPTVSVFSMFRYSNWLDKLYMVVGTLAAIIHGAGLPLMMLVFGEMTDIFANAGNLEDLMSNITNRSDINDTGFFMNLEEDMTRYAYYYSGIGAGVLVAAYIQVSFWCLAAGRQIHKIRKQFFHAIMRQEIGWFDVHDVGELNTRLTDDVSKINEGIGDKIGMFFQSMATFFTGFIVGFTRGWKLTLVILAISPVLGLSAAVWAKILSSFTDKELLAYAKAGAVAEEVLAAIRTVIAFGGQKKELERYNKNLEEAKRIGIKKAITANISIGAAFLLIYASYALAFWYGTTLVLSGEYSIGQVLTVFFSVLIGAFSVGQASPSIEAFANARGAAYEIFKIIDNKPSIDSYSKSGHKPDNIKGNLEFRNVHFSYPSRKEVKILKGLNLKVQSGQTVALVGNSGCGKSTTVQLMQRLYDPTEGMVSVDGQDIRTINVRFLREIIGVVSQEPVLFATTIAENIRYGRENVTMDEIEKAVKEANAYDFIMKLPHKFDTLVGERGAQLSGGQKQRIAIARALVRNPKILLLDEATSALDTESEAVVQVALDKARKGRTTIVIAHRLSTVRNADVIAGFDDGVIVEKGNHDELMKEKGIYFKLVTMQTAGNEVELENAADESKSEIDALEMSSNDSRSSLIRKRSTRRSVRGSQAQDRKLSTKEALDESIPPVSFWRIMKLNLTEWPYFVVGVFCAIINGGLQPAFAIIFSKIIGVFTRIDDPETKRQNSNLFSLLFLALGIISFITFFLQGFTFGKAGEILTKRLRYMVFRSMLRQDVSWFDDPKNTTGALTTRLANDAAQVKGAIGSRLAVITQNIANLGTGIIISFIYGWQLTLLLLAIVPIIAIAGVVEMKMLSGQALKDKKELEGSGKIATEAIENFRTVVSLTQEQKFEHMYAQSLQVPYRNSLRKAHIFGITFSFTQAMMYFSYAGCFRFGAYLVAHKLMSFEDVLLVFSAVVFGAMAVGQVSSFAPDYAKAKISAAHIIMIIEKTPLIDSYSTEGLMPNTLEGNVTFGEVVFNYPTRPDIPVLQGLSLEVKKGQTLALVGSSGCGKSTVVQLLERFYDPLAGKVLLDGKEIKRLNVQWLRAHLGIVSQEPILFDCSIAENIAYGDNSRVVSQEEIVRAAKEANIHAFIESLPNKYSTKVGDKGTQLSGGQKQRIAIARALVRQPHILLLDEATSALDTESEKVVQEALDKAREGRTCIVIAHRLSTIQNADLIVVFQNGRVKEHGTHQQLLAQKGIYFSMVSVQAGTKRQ

SMILES: COC(=O)N[C@H](C(=O)N1CCC[C@H]1c1nc(-c2ccc(-c3ccc(-c4c[nH]c([C@@H]5CCCN5C(=O)[C@@H](NC(=O)OC)C(C)C)n4)cc3)cc2)c[nH]1)C(C)C [Daclatasvir, 4,4′-bis[2-((2S)-1-{(2S)-2-[(methoxycarbonyl)amino]-3-methylbutanoyl}-2-pyrrolidinyl)-1H-imidazol-4-yl]-1,1′-biphenyl]
- killing of lung cancer cells [1]: effectively kills
- action on p-glycoprotein (PGP) (p-glycoprotein (PGP)): inhibitor
- Levels of FOXO3 protein ([2]; vs control treatment): increased
- Protein levels of pAKT (S473), Bcl-xL, and Survivin ([2]; vs control-treated cells): reduced
- re-sensitization of resistant cells to enzalutamide (Trib2-OE cells): re-sensitizes resistant cells to enzalutamide
- Tm of Trib2 protein in presence of DCV (pure Trib2 protein): 37 °C
- cell cycle progression (LNCaP-ENR cells [3]): arresting them at G0/G1 phase
- Tumor volumes ([4]; 30 mg/kg/day orally for four weeks, vs vehicle-treated animals): significantly reduced
- TRIB2 protein levels in tumors by IHC ([4]; 30 mg/kg/day orally, 4 weeks): reduced
- activity at 10 µM ([5]; read-out: Luciferase activity (%)): 28%
- inhibition at 10 µM ([5]; read-out: inhibition of Trib2-luciferase activity): > 70%
- degradation of chromatin DNA (ERPC cells): triggers degradation of chromatin DNA to nucleosomal fragments
- uptake rate ([6]; delivered orally): about 67%
- protein bound ([6]; in vivo): ~ 99%
- half-life ([6]; mammalian hosts): about 15 hours
- tolerability ([6]; mammalian hosts): very well tolerated
- Cell viability (LNCaP-ENR cells [7]; LNCaP-ENR cells, varying doses, 72 hours, MTS/PES): effectively decreased
- effective concentration in the pre-clinical prostate cancer modeling (LNCaP-ENR cells [7]; target steady state plasma concentration of planned trial): 4 µM
- solubility in aqueous solvents [8]: freely soluble
- Annexin V binding (LNCaP-ENR cells [9]): increased
- effects on normal, non-cancer cells (normal, non-cancer cells): minimal effects
